Assay results: US20260256702A1, “SUSTAINED ADJUNCT THERAPY TO IMPROVE CHEMOTHERAPY EFFICACY IN GLIOBLASTOMA IN A CEREBROVASCULA TUMOR-ON-A-CHIP MODEL” (Ohio State Innovation Foundation, priority 2022, published 2026)

System: human umbilical vein endothelial cells (HUVECs)
Assay: Capillary tubule formation assay
Format: cell-based
Excerpt: We have developed a novel process that combines electrospinning, sintering, and salt leaching to create tunable capsules for long-term controlled release of a compound. The capsules enable high levels of therapeutic loading with preserved bioactivity due to the hollow core that is loaded post-processing without the typical loss seen during encapsulation procedures. The polymers in the device are biocompatible, biodegradable, and used for applications in drug delivery. Chitosan, a positively charged biopolymer was selected for the inner layer of the capsule to electrostatically interact with negatively charged proteins, peptides, and antibodies (e.g. anti-VEGF, αCT11) to slow release. Poly(caprolactone) (PCL) was selected for the outer layer of the device due to its hydrophobicity that slows hydrolytic degradation. Capsule inner diameters ranged from 0.26-1.7 mm, with average wall thickness of 90 μm. Scanning electron microscopy (SEM) was used to measure capsule dimensions and pore size (FIG. 5A). No pores were present after sintering when prepared without salts. Pore size increased from 237±97 nm to 609±274 nm for 1% to 10% salt concentrations, and elution was increased at >5% salt concentration due to pore interconnectivity. In preliminary studies, in vitro release of model protein BSA and anti-VEGF (bevacizumab) were evaluated. […]

bevacizumab: anti-VEGF (149 kDa), released from capsules
tubule formation (VEGF 5 ng/ml, 10 μg/ml bevacizumab released from capsules at time points out to 9 months): tubule formation was inhibited | tubule size versus fresh anti-VEGF control (anti-VEGF released after 9 months, 5 ng VEGF): no significant difference in tubule size
